Measured values reported in PMC8019892, “Para-Aminobenzohydrazide Derivatives as Fatty Acid Amide Hydrolase Inhibitors: Design, Synthesis and Biological Evaluation” (Iranian Journal of Pharmaceutical Research : IJPR, 2020).
Where two headings read alike, the source gives them in different places.

How the values were obtained:
FAAH = tested on: FAAH; design: method as in PMID 28535469, PMID 21764305, PMID 10805767; conditions: 8 and 9, cited from earlier work
[1] = target: T1, fatty acid amide hydrolase (FAAH) (Homo sapiens, UniProt O00519); experiment: Cayman plate-based fluorometric FAAH assay kit; type: biochemical
T1 construct: purchased Cayman 10005196
T1 sequence (O00519 1-579): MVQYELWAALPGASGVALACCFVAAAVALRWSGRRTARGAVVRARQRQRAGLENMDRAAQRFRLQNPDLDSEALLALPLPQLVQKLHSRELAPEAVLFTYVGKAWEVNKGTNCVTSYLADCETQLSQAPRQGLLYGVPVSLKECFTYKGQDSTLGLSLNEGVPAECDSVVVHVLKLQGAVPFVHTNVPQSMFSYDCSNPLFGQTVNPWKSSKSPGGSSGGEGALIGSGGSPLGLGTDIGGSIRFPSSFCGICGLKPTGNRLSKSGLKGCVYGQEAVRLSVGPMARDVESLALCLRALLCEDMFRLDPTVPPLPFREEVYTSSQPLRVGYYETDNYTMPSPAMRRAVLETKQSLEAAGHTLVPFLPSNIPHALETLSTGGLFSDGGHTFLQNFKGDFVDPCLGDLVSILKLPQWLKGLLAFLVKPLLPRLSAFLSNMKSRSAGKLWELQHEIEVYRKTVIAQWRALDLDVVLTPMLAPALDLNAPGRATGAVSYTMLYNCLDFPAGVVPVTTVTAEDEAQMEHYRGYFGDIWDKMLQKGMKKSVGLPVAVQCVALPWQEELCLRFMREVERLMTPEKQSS
Experimental: The inhibitory activity of the final products was evaluated against fatty acid amide hydrolase with Cayman plate-based fluorometric FAAH assay kit (item number 10005196) using an excitation wavelength of 340 nm and an emission wavelength of 450 nm. The enzyme was incubated with inhibitors for 5 min in […] Tris/HCl buffer (pH 9.0) at 37 °C. AMC-arachidonoyl amide and JZL-195 were used as substrate and positive control respectively. All test samples were dissolved in DMSO.
The IC50 of the compounds with inhibitory activity above 70% and JZL-195, reference compound, were investigated at concentrations of 0.1, 5, 10, 20, 50 and 100 nM. The results are summarized in Table 1 Evaluation of the 5a, 5b and 7 derivatives have well illustrated the effect of phenyl group on inhibitory activity, which is probably directly related to lipophilicity and π-π interactions in lipophilic envelope.

[2] = 100 nM compound, 5 min incubation, Tris/HCl pH 9.0, 37 °C, substrate AMC-arachidonoyl amide, read-out: %inhibition at 100nM
[3] = concentrations 0.1, 5, 10, 20, 50 and 100 nM, fluorometric FAAH assay, read-out: IC50

Cc1cccnc1NC(=O)CNC(=O)C(C)c1ccc(Nc2ccnc(C(F)(F)F)c2)cc1 (centres unmarked) [TPA-17]
IC50 (FAAH; known FAAH inhibitor, Figure 1): 2400 nM | FAAH inhibitory activity (FAAH; previously reported, in words): mild FAAH inhibitory activity

O=C(O)CCC(=O)NNC(=O)c1ccc(NC(=O)CCC(=O)O)cc1 [Compound 11, 4-(2-(4-(3-carboxypropanamido)benzoyl) hydrazineyl)-4-oxobutanoic acid]
inhibition at 0.1 µM [1, 2]: 51.2% | melting point: 185 to 187 °C

O=C(Oc1ccc([N+](=O)[O-])cc1)N1CCN(Cc2cccc(Oc3ccccc3)c2)CC1 [JZL-195, reference compound]
IC50 [1]: 1.31 nM | inhibition at 0.1 µM ([1]; pH 9, read-out: %inhibition at 100nM): 81%

NC(=O)NNC(=O)c1ccc(NC(=O)c2ccccc2)cc1 [Compound 5a, 2-(4-benzamidobenzoyl) hydrazine-1-carboxamide]
inhibition at 0.1 µM [1, 2]: 58.5% | melting point: 283 to 285 °C

O=C(NNS(=O)(=O)c1ccccc1)c1ccc(NS(=O)(=O)c2ccccc2)cc1 [Compound 13, N-(4-(2-(phenylsulfonyl) hydrazine-1-carbonyl)phenyl) benzenesulfonamide]
inhibition at 0.1 µM [1, 2]: 31.4% | melting point: 239 to 241 °C

O=C(NNC(=O)c1ccc(NC(=O)c2ccc(F)cc2)cc1)c1ccc(F)cc1 [Compound 10e, 4-fluoro-N-(4-(2-(4-fluorobenzoyl) hydrazine-1-carbonyl)phenyl) benzamide]
inhibition at 0.1 µM [1, 2]: 38.9% | melting point: 322 to 325 °C

O=C(NN1C(=O)c2ccccc2C1=O)c1ccc(N2C(=O)c3ccccc3C2=O)cc1 [Compound 8, N, 4-bis (1,3-dioxoisoindolin-2-yl) benzamide]
inhibition at 0.1 µM [1, 2]: 31.3% | melting point: 316 to 318 °C

O=C(NNC(=O)c1ccccc1C(=O)O)c1ccc(NC(=O)c2ccccc2C(=O)O)cc1 [Compound 12, 2-(2-(4-(2-carboxybenzamido)benzoyl) hydrazine-1-carbonyl) benzoic acid]
inhibition at 0.1 µM [1, 2]: 80% | IC50 [1, 3]: 1.62 nM | melting point: 186 °C

NC(=O)NNC(=O)c1ccc(NC(=O)c2ccc(Cl)cc2)cc1 [Compound 5b, 2-(4-(4-chlorobenzamido)benzoyl) hydrazine-1-carboxamide]
inhibition at 0.1 µM [1, 2]: 63.4% | melting point: 325 to 327 °C

O=C(NN1C(=O)CCC1=O)c1ccc(N2C(=O)CCC2=O)cc1 [Compound 9, N, 4-bis (2,5-dioxopyrrolidin-1-yl) benzamide]
inhibition at 0.1 µM [1, 2]: 45.1% | melting point: 273 to 275 °C

O=C(NNC(=O)c1ccc([N+](=O)[O-])cc1)c1ccc(NC(=O)c2ccc([N+](=O)[O-])cc2)cc1 [Compound 10f, 4-nitro-N-(4-(2-(4-nitrobenzoyl) hydrazine-1-carbonyl)phenyl) benzamide]
inhibition at 0.1 µM [1, 2]: 50.5% | melting point: 287 to 289 °C

NC(=O)NNC(=O)c1ccc(NC(N)=O)cc1 [Compound 7, 2-(4-ureidobenzoyl) hydrazine-1-carboxamide]
inhibition at 0.1 µM [1, 2]: 27.3% | melting point: 226 to 228 °C (dec.)

COc1ccc(C(=O)NNC(=O)c2ccc(NC(=O)c3ccc(OC)cc3)cc2)cc1 [Compound 10d, 4-methoxy-N-(4-(2-(4-methoxybenzoyl) hydrazine-1-carbonyl)phenyl) benzamide]
inhibition at 0.1 µM [1, 2]: 77.3% | IC50 [1, 3]: 5.1 nM | melting point: 264 to 266 °C

O=C(CCCCCCc1ccccc1)c1nnc(-c2ccccn2)o1 [OL-135 analogue]
Ki (FAAH; known FAAH inhibitor, Figure 1): 0.29 nM

O=C(NNC(=O)c1ccc(NC(=O)c2ccc(Cl)cc2)cc1)c1ccc(Cl)cc1 [Compound 10c, 4-chloro-N-(4-(2-(4-chlorobenzoyl) hydrazine-1-carbonyl)phenyl) benzamide]
inhibition at 0.1 µM [1, 2]: 77.3% | IC50 [1, 3]: 12.3 nM | melting point: 315 to 318 °C

O=C(NNC(=O)c1ccc(NC(=O)c2ccccc2)cc1)c1ccccc1 [Compound 10a, N-(4-(2-benzoylhydrazine-1-carbonyl)phenyl) benzamide]
inhibition at 0.1 µM [1, 2]: 81.1% | IC50 [1, 3]: 20.2 nM | melting point: 265 to 267 °C

O=C(NNC(=O)c1cccc(Cl)c1)c1ccc(NC(=O)c2cccc(Cl)c2)cc1 [Compound 10b, 3-chloro-N-(4-(2-(3-chlorobenzoyl) hydrazine-1-carbonyl)phenyl) benzamide]
inhibition at 0.1 µM [1, 2]: 77.4% | IC50 [1, 3]: 13.3 nM | melting point: 273 to 275 °C
